{
  "source": "patent EP4702986A1",
  "about": "“POLYPEPTIDE AND USE THEREOF” (Biocells (Beijing) Biotech Co., Ltd., priority 2023, dated 2024)",
  "key": {"mouse ETB receptor": {"molecular_target": "T1, mouse ETB receptor (Mus musculus, UniProt P48302)", "T1 construct": "expressed in transfected cells", "T1 sequence (P48302 27-442)": "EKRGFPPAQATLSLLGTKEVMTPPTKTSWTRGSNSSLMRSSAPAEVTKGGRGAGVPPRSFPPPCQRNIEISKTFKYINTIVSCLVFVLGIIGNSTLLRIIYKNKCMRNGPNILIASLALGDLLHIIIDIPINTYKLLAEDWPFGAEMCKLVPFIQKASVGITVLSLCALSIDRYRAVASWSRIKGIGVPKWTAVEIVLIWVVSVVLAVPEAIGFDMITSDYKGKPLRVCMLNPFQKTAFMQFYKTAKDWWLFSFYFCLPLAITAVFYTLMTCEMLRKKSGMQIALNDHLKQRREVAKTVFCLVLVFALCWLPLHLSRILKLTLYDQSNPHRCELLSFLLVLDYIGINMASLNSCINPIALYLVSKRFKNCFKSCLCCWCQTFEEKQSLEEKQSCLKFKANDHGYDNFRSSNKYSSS", "assay": "Determination of EC50s of polypeptides against mouse ETB receptor", "assay_type": "cell-based", "conditions": "Table 9, mouse ETB receptor; read-out: DETAR Agonist Activity EC50"}, "male SD rats": {"test_system": "male SD rats", "conditions": "one animal per row, observed 48 hours", "description": "In an experiment about acute toxicity of subcutaneous administration, male SD rats weighing 200-230 g were dosed in a range between 60 µg/Kg and 960 µg/Kg. Observation was made for 48 hours after subcutaneous administration. Toxic response and mortality of the rats were preliminarily observed, and time of death and doses without mortality were recorded. The level of acute toxicity of the polypeptides was preliminarily determined based on the doses without mortality."}, "rat model of pMACO [1]": {"test_system": "rat model of pMACO", "assay": "Grip strength test in rat model of pMACO", "assay_type": "in vivo, SD rats", "conditions": "pMACO rats; 3 administrations (2, 4, 6 h after modeling); IRL1620 5µg/Kg, BX34 7µg/Kg, BX48 5µg/Kg"}, "SD rats": {"test_system": "SD rats", "conditions": "BX34 42 µg/Kg, BX229 6.6 µg/Kg", "description": "Male SD rats were anesthetized with isoflurane, and their neck hairs were shaved. A midline incision was made on the neck to expose the trachea. A ventilator and anesthesia machine for small animals were turned on, with concentration of an anesthetic gas set to 1.2, and its exit channel connected to an inlet of the ventilator. Tidal volume of the ventilator was set to 2 mL, the respiratory rate was 90 breaths/minute, and the respiratory ratio was 1:2. An outlet end of the ventilator was connected to a plastic hose, which was inserted into the rat's airway.\nA machine and a software of a biological signal data acquisition and analysis system were turned on. One end of a data acquisition plate was connected to the plastic hose, and the other end was connected to a collector valve connected with a 1-mL syringe. The syringe was filled with heparinized saline, which was injected into the data acquisition plate to expel the air in the entire space until the heparinized saline flowed out from the other end of the plastic hose. The right common carotid arteries of the rats were isolated. A dead knot was made at the distal end and a slipknot at the proximal end of a right common carotid artery. A 1/2-sized incision was made in the artery between the knot with a microscissor, and the plastic hose with heparinized saline was inserted into the incision and fixed to prevent back-and-forth movement. The initial value of the blood pressure was set to zero with the zero-adjustment valve of the biological signal data acquisition and analysis system. The slipknot at the proximal end of the common carotid artery was untied, and real-time blood pressure data of the animal appeared on the software. […] The dosages of IRL1620, BX34, and BX229 were 5 µg/Kg, 42 µg/kg, and 6.6 µg/Kg, respectively."}, "rat model of pMACO [2]": {"test_system": "rat model of pMACO", "assay": "mRS-6 scoring in rat model of pMACO", "assay_type": "in vivo, SD rats", "design": "mRS-7D / mRS-14D / mRS-21D / mRS-30D: scale not given here", "conditions": "3Time regimen: IRL1620 5 µg/Kg, BX225 6.6 µg/Kg", "text": "(§1) Male SD rats, weighing 280-300 g, were used and acclimatized for at least 3 days. Focal cerebral ischemia was induced by middle cerebral artery occlusion with a suture method under isoflurane anesthesia. The animals were placed in a supine position, a midline incision was made, and the right common carotid artery, external carotid artery, and internal carotid artery were exposed. A 4.0 monofilament nylon suture was advanced from the external carotid artery toward the internal carotid artery lumen until resistance was felt (~20 mm), indicating middle cerebral artery occlusion. The nylon filament was allowed to stay in place to create a permanent model of focal cerebral ischemia. The day of modeling was defined as D1, the next day as D2, and so on. Since the experiment was not be completed in a single batch, and in order to prevent accidental errors, all operations in this experiment had to follow the principle of parallel operation, i.e., the experiment on each day needed to include animals from each group. Sequential numbering for surgical modeling was obtained by sorting the animals according to their body weight before the experiment. After the surgery, successfully modeled pMCAO rats were randomly assigned into a model group and various treatment groups. The detailed grouping of the experiment was as follows: (1) 15 rats in the 5 µg/Kg IRL1620 group with 9 administrations over 3 days; (2) 15 rats in the 6.6 µg/Kg BX225 group with 9 administrations over 3 days; (3) 15 rats in the 19.8 µg/Kg BX225 group with 3 administrations over 3 days; (4) 15 rats in the model (normal saline) group; and (5) 6 rats in the sham group (the sham group underwent the same procedure without vascular ligation and suture insertion). The administration was performed via tail vein injection (iv) with an administration volume of 2 mL/kg. The first administration was 2 hours after the surgery. Administration frequencies were single and multiple administrations per day according to the experimental design. Administrations were performed on D1, D3, and D6, respectively, as detailed in Table 22. The model group and the sham group were given the same volume of vehicle normal saline."}, "rat model of pMACO [3]": {"test_system": "rat model of pMACO", "assay": "Garcia JH scoring in rat model of pMACO", "assay_type": "in vivo, SD rats", "design": "5 min Spontaneous Activity / Body Symmetry / Forelimb Extension Movement / Cage Climbing / Body Tactile Response on Both Sides / Beard Touch Reaction on Both Sides / Total Score: scale not given here", "conditions": "Garcia JH score, Day 21; 3Time regimen: IRL1620 5 µg/Kg, BX225 6.6 µg/Kg", "text": "as §1"}, "[4]": {"conditions": "SD rats, tail vein, IRL620 5 µg/Kg"}},
  "note": "Entries after “also recorded” stand apart in the source; their conditions may differ. Like-named read-outs stand apart in the source and are kept apart here. Numbered stars: 1 amine (or outer) side, 2 acyl side, 3 side chain; on linkers, the order of the positions; unused ones are H or OH. Side chains are listed from the residue outwards. Peptide text beside a SMILES is read from it. * marks the point of attachment. X1 = C[C@H](NC(=O)[C@@H]1CCCN1C(=O)[C@@H](N)CSC1CC(=O)N(CCC(=O)*)C1=O)C(=O)N[C@@H](CCCCN)C(=O)O; γGlu = O=C(O)[C@H](CCC(=O)[*:2])N[*:1]; Fumaroyl = O=C(O)/C=C/C(=O)*; Suc = O=C(CCC(=O)[*:2])[*:1]; Lauroyl = CCCCCCCCCCCC(=O)*; AEEA = NCCOCCOCC(=O)O",
  "data": [
    {"smiles": "CC[C@H](C)[C@H](NC(=O)[C@H](CC(=O)O)NC(=O)[C@H](CCCCNC(=O)COCCOCCNC(=O)CCN1C(=O)CC(SC[C@H](N)C(=O)N2CCC[C@H]2C(=O)N[C@@H](C)C(=O)N[C@@H](CCCCN)C(=O)O)C1=O)NC(=O)[C@H](Cc1c[nH]cn1)NC(=O)[C@H](C)NC(=O)[C@H](Cc1ccccc1)NC(=O)[C@H](Cc1ccc(O)cc1)NC(=O)[C@@H](NC(=O)[C@H](C)NC(=O)[C@H](CCC(=O)O)NC(=O)[C@H](CCC(=O)O)NC(=O)[C@H](CC(=O)O)NC(=O)/C=C/C(=O)O)C(C)C)C(=O)N[C@H](C(=O)N[C@@H](Cc1c[nH]c2ccccc12)C(=O)O)[C@@H](C)CC", "note": "(some centres unmarked) [BX-95] (Fumaroyl-DEEAVYFAHK([AEEA-X1])DIIW-OH)", "values": [
      {"measurement": "EC50", "setting": "mouse ETB receptor", "result": 22.1, "unit": "nM"}
    ]},
    {"smiles": "CCCCCCCCCCCC(=O)N[C@@H](CCC(=O)NCCOCCOCC(=O)NCCCC[C@H](NC(=O)[C@H](Cc1c[nH]cn1)NC(=O)[C@H](C)NC(=O)[C@H](Cc1ccccc1)NC(=O)[C@H](Cc1ccc(O)cc1)NC(=O)[C@@H](NC(=O)[C@H](C)NC(=O)[C@H](CCC(=O)O)NC(=O)[C@H](CCC(=O)O)NC(=O)[C@H](CC(=O)O)NC(=O)/C=C/C(=O)O)C(C)C)C(=O)N[C@@H](CC(=O)O)C(=O)N[C@H](C(=O)N[C@H](C(=O)N[C@@H](Cc1c[nH]c2ccccc12)C(=O)O)[C@@H](C)CC)C(C)C)C(=O)O", "note": "[BX229-Na] (Fumaroyl-DEEAVYFAHK([AEEA-γGlu-Lauroyl])DVIW-OH)", "values": [
      {"measurement": "EC50", "setting": "mouse ETB receptor", "result": 9.05, "unit": "nM"},
      {"measurement": "Observations of Animal Status", "setting": "male SD rats; subcutaneous 120 µg/Kg", "result": "No obvious reaction observed within 24 hours"},
      {"measurement": "Observations of Animal Status", "setting": "male SD rats; subcutaneous 240 µg/Kg", "result": "No obvious abnormal reaction observed within 48 hours"},
      {"measurement": "Observations of Animal Status", "setting": "male SD rats; subcutaneous 480 µg/Kg", "result": "No obvious abnormal reaction observed within 48 hours"},
      {"measurement": "Observations of Animal Status", "setting": "male SD rats; subcutaneous 960 µg/Kg", "result": "No significant reaction within 2 hours, died at 2 hours and 10 minutes; also recorded: No obvious abnormal reaction observed within 48 hours"}
    ]},
    {"smiles": "CC[C@H](C)[C@H](NC(=O)[C@H](CC(=O)O)NC(=O)[C@H](CC(C)C)NC(=O)[C@H](Cc1c[nH]cn1)NC(=O)[C@H](C)NC(=O)[C@H](Cc1ccccc1)NC(=O)[C@H](Cc1ccc(O)cc1)NC(=O)[C@@H](NC(=O)[C@H](C)NC(=O)[C@H](CCC(=O)O)NC(=O)[C@H](CCC(=O)O)NC(=O)[C@H](CC(=O)O)NC(=O)CCC(=O)O)C(C)C)C(=O)N[C@H](C(=O)N[C@@H](Cc1c[nH]c2ccccc12)C(=O)O)[C@@H](C)CC", "note": "[IRL1620, reference compound] (Suc-DEEAVYFAHLDIIW-OH)", "values": [
      {"measurement": "Grip Strength Test 3D/pre", "setting": "rat model of pMACO [1]", "result": "57%±11%"},
      {"measurement": "Grip Strength Test 7D/pre", "setting": "rat model of pMACO [1]", "result": 61, "unit": "%+13%"},
      {"measurement": "Grip Strength Test 24h/pre", "setting": "rat model of pMACO [1]", "result": "47% ±27%"},
      {"measurement": "Observations of Animal Status", "setting": "male SD rats; subcutaneous 60 µg/Kg", "result": "Developed rapid breathing at 25 minutes after administration, recovered after 15 minutes; also recorded: Developed rapid breathing at 26 minutes after administration, recovered after 16 minutes; also recorded: Developed rapid breathing at 30 minutes after administration, recovered after 17 minutes; also recorded: Developed rapid breathing at 25 minutes after administration, recovered after 16 minutes"},
      {"measurement": "Observations of Animal Status", "setting": "male SD rats; subcutaneous 120 µg/Kg", "result": "Developed rapid breathing at 27 minutes after administration, gradually recovered after 50 minutes; also recorded: Developed rapid breathing at 26 minutes after administration and lasted for 23 minutes; then died; also recorded: Developed rapid breathing at 26 minutes after administration, gradually recovered after 50 minutes; also recorded: Developed rapid breathing at 28 minutes after administration, gradually recovered after 50 minutes"},
      {"measurement": "maximum extent of decrease in blood pressure, of the baseline blood pressure", "setting": "SD rats; [4]", "result": "16.1%±2.4%"},
      {"measurement": "time to the lowest blood pressure", "setting": "SD rats; [4]", "result": "≤ 2", "unit": "min"},
      {"measurement": "Maximum percentage of blood pressure reduction relative to baseline blood pressure (n = 3)", "setting": "SD rats; intravenous, IRL1620 5 µg/Kg", "result": "16.1%±2.4%"},
      {"measurement": "Time from baseline blood pressure to the lowest blood pressure", "setting": "SD rats; intravenous, IRL1620 5 µg/Kg", "result": "Less than 2 mins"},
      {"measurement": "mRS-7D", "setting": "rat model of pMACO [2]; day 7", "result": "2.54±2.03"},
      {"measurement": "mRS-14D", "setting": "rat model of pMACO [2]; day 14", "result": "2.77±2.66"},
      {"measurement": "mRS-21D", "setting": "rat model of pMACO [2]; day 21", "result": "2.72±2.71"},
      {"measurement": "mRS-30D", "setting": "rat model of pMACO [2]; day 30", "result": "2.52±2.87"},
      {"measurement": "5 min Spontaneous Activity", "setting": "rat model of pMACO [3]", "result": "1.77±1.48"},
      {"measurement": "Beard Touch Reaction on Both Sides", "setting": "rat model of pMACO [3]", "result": "1.95±0.82"},
      {"measurement": "Body Symmetry", "setting": "rat model of pMACO [3]", "result": "0.90±0.80"},
      {"measurement": "Body Tactile Response on Both Sides", "setting": "rat model of pMACO [3]", "result": "1.79±0.70"},
      {"measurement": "Cage Climbing", "setting": "rat model of pMACO [3]", "result": "2.03± 0.86"},
      {"measurement": "Forelimb Extension Movement", "setting": "rat model of pMACO [3]", "result": "1.26±1.05"},
      {"measurement": "Total Score", "setting": "rat model of pMACO [3]", "result": "9.70± 5.58"}
    ]}
  ]
}
